The term EC50 denotes the concentration giving half of the maximal effect.

From patent US12391679B2, “Benzamide-substituted bicyclic imidazo- and pyrazolo-fused -pyridine, -pyrimide, and -pyridazine compounds for treatment of inflammatory diseases” (ONCO3R Therapeutics BV, priority 2019, dated 2025) come the findings set out here.

The subject of the test is LPS-induced TNFα in monocytes. As to the kind of experiment: Monocytes assay: LPS-triggered TNFα (ELISA). In kind it is cell-based, human. The note with it: LPS-triggered TNFα inhibition. In short, it runs like this: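 TNFα secretion was triggered with 200 ng/mL LPS for 4 h in human blood CD14+ monocytes after 1 h compound pretreatment at 37 °C, with 0.2% final DMSO. Supernatants were analysed by streptavidin-HRP/luminol ELISA, and percentage inhibition at each concentration was derived relative to control wells.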
Background: ELISA stands for enzyme-linked immunosorbent assay.

As to `COc1cc(-c2cnc3cc(C(C)(C)CO)ccn23)cc(OC(F)F)c1C(=O)NC1CC1` [Cpd 150, N-cyclopropyl-2-(difluoromethoxy)-4-[7-(2-hydroxy-1,1-dimethyl-ethyl)imidazo[1,2-a]pyridin-3-yl]-6-methoxy-benzamide], the EC50 (Homo sapiens, Monocyte) was in the range of 100 to 1000 nM. Where the note is “Homo sapiens, Monocyte”, `COc1cc(-c2cnn3cc(C4(C#N)CCOCC4)ccc23)cc(OC(F)F)c1C(=O)N[C@@H]1C[C@@H]1F` [Cpd 243, 4-[6-(4-cyanotetrahydropyran-4-yl)pyrazolo[1,5-a]pyridin-3-yl]-2-(difluoromethoxy)-N-[(1R,2S)-2-fluorocyclopropyl]-6-methoxy-benzamide] had an EC50 of 100 to 1000 nM.

In the case of `COc1cc(-c2cnn3cc(C(C)(C)CO)ccc23)cc(OC(F)F)c1C(=O)NC1CC1` [Cpd 236, N-cyclopropyl-2-(difluoromethoxy)-4-[6-(2-hydroxy-1,1-dimethyl-ethyl)pyrazolo[1,5-a]pyridin-3-yl]-6-methoxy-benzamide], the EC50 (Homo sapiens, Monocyte) was 100 to 1000 nM. The compound `COc1cc(-c2cnn3cc(C(C)(C)CO)ccc23)cc(OC(F)F)c1C(=O)N[C@@H]1C[C@@H]1F` [Cpd 242, 2-(difluoromethoxy)-N-[(1R,2S)-2-fluorocyclopropyl]-4-[6-(2-hydroxy-1,1-dimethyl-ethyl)pyrazolo[1,5-a]pyridin-3-yl]-6-methoxy-benzamide] registered an EC50 (Homo sapiens, Monocyte) of 0.1 to 100 nM. Same read-out and setting: under `COc1cc(-c2cnc3cc(C4CN(C(C)=O)C4)ccn23)cc(OC(F)F)c1C(=O)NC1CC1` [Cpd 63, 4-[7-(1-acetylazetidin-3-yl)imidazo[1,2-a]pyridin-3-yl]-N-cyclopropyl-2-(difluoromethoxy)-6-methoxy-benzamide] stands 100 to 1000 nM. As for `COc1cc(-c2cnc3cc([C@@](C)(O)C4CC4)ccn23)cc(OC(F)F)c1C(=O)NC1CC1` (single isomer, unassigned) [Cpd 163, N-cyclopropyl-4-[7-(1-cyclopropyl-1-hydroxy-ethyl)imidazo[1,2-a]pyridin-3-yl]-2-(difluoromethoxy)-6-methoxy-benzamide], the EC50 lay in the range of 100 to 1000 nM. For the setting “Homo sapiens, Monocyte”, `COc1cc(-c2cnc3cc(C(C)(C)C#N)cnn23)cc(OC(F)F)c1C(=O)N[C@@H]1C[C@@H]1F` [Cpd 228, 4-[7-(1-cyano-1-methyl-ethyl)imidazo[1,2-b]pyridazin-3-yl]-2-(difluoromethoxy)-N-[(1R,2S)-2-fluorocyclopropyl]-6-methoxy-benzamide] gave an EC50 of 100 to 1000 nM.

Take `COc1cc(-c2cnn3cc(C(C)(C)C#N)ccc23)cc(OC(F)F)c1C(=O)N[C@@H]1C[C@@H]1F` [Cpd 219, 4-[6-(1-cyano-1-methyl-ethyl)pyrazolo[1,5-a]pyridin-3-yl]-2-(difluoromethoxy)-N-[(1R,2S)-2-fluorocyclopropyl]-6-methoxy-benzamide]: the EC50 (Homo sapiens, Monocyte) fell in the range of 0.1 to 100 nM. Where the note is “Homo sapiens, Monocyte”, `COc1cc(-c2cnc3cc(C4(O)CCOCC4)ccn23)cc(OC(F)F)c1C(=O)NC1CC1` [Cpd 170, N-cyclopropyl-2-(difluoromethoxy)-4-[7-(4-hydroxytetrahydropyran-4-yl)imidazo[1,2-a]pyridin-3-yl]-6-methoxy-benzamide] showed an EC50 of 1000 to 5000 nM.

The compound `COc1cc(-c2cnc3cc(C(C)(O)C(F)(F)F)ccn23)cc(OC(F)F)c1C(=O)NC1CC1` (stereo not drawn) [Cpd 129, N-cyclopropyl-2-(difluoromethoxy)-6-methoxy-4-[7-(2,2,2-trifluoro-1-hydroxy-1-methyl-ethyl)imidazo[1,2-a]pyridin-3-yl]benzamide] had an EC50 (Homo sapiens, Monocyte) of 100 to 1000 nM. As to `COc1cc(-c2cnc3cc(C4(C#N)CC4)ccn23)cc(OC(F)F)c1C(=O)NC1CC1` [Cpd 33, 4-[7-(1-cyanocyclopropyl)imidazo[1,2-a]pyridin-3-yl]-N-cyclopropyl-2-(difluoromethoxy)-6-methoxy-benzamide], the EC50 (Homo sapiens, Monocyte) was in the range of 0.1 to 100 nM.

In turn, `COc1cc(-c2cnc3cc(C(C)(C)O)ccn23)cc(OC(F)F)c1C(=O)NC1CC1` [Cpd 35, N-cyclopropyl-2-(difluoromethoxy)-4-[7-(1-hydroxy-1-methyl-ethyl)imidazo[1,2-a]pyridin-3-yl]-6-methoxy-benzamide] displayed an EC50 (Homo sapiens, Monocyte) of 100 to 1000 nM. Under “Homo sapiens, Monocyte”, `COc1cc(-c2cnc3cc(C(C)(C)C#N)ccn23)cc(OC(F)F)c1C(=O)N1CC(C#N)C1` [Cpd 77, 1-[4-[7-(1-cyano-1-methyl-ethyl)imidazo[1,2-a]pyridin-3-yl]-2-(difluoromethoxy)-6-methoxy-benzoyl]azetidine-3-carbonitrile] yielded an EC50 of 100 to 1000 nM.

Turning to `COc1cc(-c2cnn3cc(C(C)(C)C#N)ccc23)cc(OC(F)F)c1C(=O)N[C@@H]1C[C@H]1F` (single isomer, unassigned) [Cpd 258, 4-[6-(1-cyano-1-methyl-ethyl)pyrazolo[1,5-a]pyridin-3-yl]-2-(difluoromethoxy)-N-(2-fluorocyclopropyl)-6-methoxy-benzamide], the EC50 lay within 100 to 1000 nM.

With `CCC(C)(O)c1ccn2c(-c3cc(OC)c(C(=O)NC4CC4)c(OC(F)F)c3)cnc2c1` (stereo not drawn) [Cpd 137, N-cyclopropyl-2-(difluoromethoxy)-4-[7-(1-hydroxy-1-methyl-propyl)imidazo[1,2-a]pyridin-3-yl]-6-methoxy-benzamide], the EC50 (Homo sapiens, Monocyte) was in the range of 100 to 1000 nM. As for `COc1cc(-c2cnc3cc(C(C)O)ccn23)cc(OC(F)F)c1C(=O)NC1CC1` (stereo not drawn) [Cpd 140, N-cyclopropyl-2-(difluoromethoxy)-4-[7-(1-hydroxyethyl)imidazo[1,2-a]pyridin-3-yl]-6-methoxy-benzamide], where the note is “Homo sapiens, Monocyte”, the EC50 lay within 100 to 1000 nM. With `COCC(C)(C#N)c1ccn2c(-c3cc(OC)c(C(=O)NC4CC4)c(OC(F)F)c3)cnc2c1` (stereo not drawn) [Cpd 195, 4-[7-(1-cyano-2-methoxy-1-methyl-ethyl)imidazo[1,2-a]pyridin-3-yl]-N-cyclopropyl-2-(difluoromethoxy)-6-methoxy-benzamide], the EC50 (Homo sapiens, Monocyte) was in the range of 100 to 1000 nM.

Turning to `COc1cc(-c2cnc3cc([C@@](C)(C#N)CO)ccn23)cc(OC(F)F)c1C(=O)NC1CC1` (single isomer, unassigned) [Cpd 190, 4-[7-(1-cyano-2-hydroxy-1-methyl-ethyl)imidazo[1,2-a]pyridin-3-yl]-N-cyclopropyl-2-(difluoromethoxy)-6-methoxy-benzamide], the EC50 was 1000 to 5000 nM. `COc1cc(-c2cnn3cc(C(C)(C)C#N)ccc23)cc(OC(F)F)c1C(=O)NC1CC1` [Cpd 208, 4-[6-(1-cyano-1-methyl-ethyl)pyrazolo[1,5-a]pyridin-3-yl]-N-cyclopropyl-2-(difluoromethoxy)-6-methoxy-benzamide] had an EC50 (Homo sapiens, Monocyte) of 0.1 to 100 nM.

Under “Homo sapiens, Monocyte”, `COc1cc(-c2cnc3cc(C(C)(O)C4CC4)ccn23)cc(OC(F)F)c1C(=O)NC1CC1` (stereo not drawn) [Cpd 138, N-cyclopropyl-4-[7-(1-cyclopropyl-1-hydroxy-ethyl)imidazo[1,2-a]pyridin-3-yl]-2-(difluoromethoxy)-6-methoxy-benzamide] showed an EC50 of 100 to 1000 nM. `COc1cc(-c2cnn3cc(C4(C#N)CCOCC4)ccc23)cc(OC(F)F)c1C(=O)NC1CC1` [Cpd 237, 4-[6-(4-cyanotetrahydropyran-4-yl)pyrazolo[1,5-a]pyridin-3-yl]-N-cyclopropyl-2-(difluoromethoxy)-6-methoxy-benzamide] came in with an EC50 (Homo sapiens, Monocyte) of 100 to 1000 nM. Still for that read-out and setting: under `COc1cc(-c2cnn3cc(C4CCOCC4)cnc23)cc(OC(F)F)c1C(=O)NC1CC1` [Cpd 95, N-cyclopropyl-2-(difluoromethoxy)-6-methoxy-4-(6-tetrahydropyran-4-ylpyrazolo[1,5-a]pyrimidin-3-yl)benzamide] stands 100 to 1000 nM; under `COc1cc(-c2cnn3cc(C(C)(C)C#N)ccc23)cc(OC(F)F)c1C(=O)N[C@@H]1C[C@H]1F` (single isomer, unassigned) [Cpd 257, 4-[6-(1-cyano-1-methyl-ethyl)pyrazolo[1,5-a]pyridin-3-yl]-2-(difluoromethoxy)-N-(2-fluorocyclopropyl)-6-methoxy-benzamide], 100 to 1000 nM. Take `COc1cc(-c2cnc3cc(C4CCC4)c(F)cn23)cc(OC(F)F)c1C(=O)NC1CC1` [Cpd 168, 4-(7-cyclobutyl-6-fluoro-imidazo[1,2-a]pyridin-3-yl)-N-cyclopropyl-2-(difluoromethoxy)-6-methoxy-benzamide]: the EC50 (Homo sapiens, Monocyte) lay within 100 to 1000 nM.
